Source: patent US20230174486A1, “NON-LYSOSOMAL GLUCOSYLCERAMIDASE INHIBITORS AND USES THEREOF” (ALECTOS THERAPEUTICS lNC., priority 2020, published 2023)

Experiments:
[1] = biological target: T1, human non-lysosomal glucosylceramidase (GBA2) (Homo sapiens, UniProt Q9HCG7); experiment: Binding specificity for GBA2 over other molecules (ratio of Ki or IC50 values); format: biochemical; conditions: qualitative statement, no values or other enzyme given
T1 sequence (Q9HCG7 1-927): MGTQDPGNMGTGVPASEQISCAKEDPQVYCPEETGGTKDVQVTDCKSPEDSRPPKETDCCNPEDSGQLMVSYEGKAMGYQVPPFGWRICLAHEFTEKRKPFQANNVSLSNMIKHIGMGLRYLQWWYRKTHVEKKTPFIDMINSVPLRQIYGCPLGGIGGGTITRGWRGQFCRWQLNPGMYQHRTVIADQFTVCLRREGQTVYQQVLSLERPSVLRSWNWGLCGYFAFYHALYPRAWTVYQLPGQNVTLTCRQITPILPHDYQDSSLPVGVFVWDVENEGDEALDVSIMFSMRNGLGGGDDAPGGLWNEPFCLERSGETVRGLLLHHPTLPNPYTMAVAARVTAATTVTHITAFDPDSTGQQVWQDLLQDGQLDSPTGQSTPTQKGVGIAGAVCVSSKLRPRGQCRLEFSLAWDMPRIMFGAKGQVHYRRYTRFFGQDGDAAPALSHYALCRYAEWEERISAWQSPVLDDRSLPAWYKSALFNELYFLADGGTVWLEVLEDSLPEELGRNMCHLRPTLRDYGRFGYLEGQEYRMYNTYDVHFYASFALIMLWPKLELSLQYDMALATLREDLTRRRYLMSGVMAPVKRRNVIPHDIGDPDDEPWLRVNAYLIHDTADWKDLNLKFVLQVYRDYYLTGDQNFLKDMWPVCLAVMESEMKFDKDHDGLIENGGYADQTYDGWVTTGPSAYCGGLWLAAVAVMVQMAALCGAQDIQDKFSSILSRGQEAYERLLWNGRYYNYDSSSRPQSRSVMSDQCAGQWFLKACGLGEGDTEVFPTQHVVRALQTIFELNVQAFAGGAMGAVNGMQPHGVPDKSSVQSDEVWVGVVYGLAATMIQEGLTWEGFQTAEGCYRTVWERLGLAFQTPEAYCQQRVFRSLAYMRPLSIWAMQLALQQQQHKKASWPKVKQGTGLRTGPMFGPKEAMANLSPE
Excerpt: In some embodiments, one or more of the compounds according to the invention may specifically bind a GBA2. In alternative embodiments, one or more of the compounds according to the invention may specifically bind the active site of a GBA2. […] In alternative embodiments, one or more of the compounds according to the invention may specifically bind the human non-lysosomal glucosylceramidase (GBA2) over the human lysosomal glucosylceramidase (GCase) and/or the human cytosolic glucosylceramidase (GBA3). In alternative embodiments, one or more of the compounds according to the invention may specifically bind the human non-lysosomal glucosylceramidase (GBA2) over the human glucosylceramide synthase (GCS). In alternative embodiments, one or more of the compounds according to the invention may specifically bind the human non-lysosomal glucosylceramidase (GBA2) over an intestinal alpha-glucosidase, where the intestinal alpha-glucosidase may be a sucrase-isomaltase or a maltase-glucoamylase.

human GBA2 = biological target: T2, human GBA2 (Homo sapiens, UniProt Q9HCG7); experiment: Inhibition of GBA2 in cell lysate (4-methylumbelliferone-β-D glucopyranoside substrate); format: biochemical; conditions: homogenate of HEK293T cells stably overexpressing human GBA2, pH 5.5, 37° C., GCase inhibitor present
T2 construct: cellular homogenate
T2 sequence (Q9HCG7 1-927): T1 sequence (Q9HCG7 1-927)
Procedure: Stable GBA2-expressing HEK293T cells were generated as follows. The PCR-amplified human GBA2 (GBA2 nucleotide accession number BC011363) using the following primers: Sense 5’---CGCAAATGGGCGGTAGGCGTG---3’ and antisense 5’---TAGTCAGCCATGGGGCGGAGA ---3’) was cloned into pLenti-GIII-CMV by ABM Inc. The correctness of the construct was verified by sequencing. Lentivirus particles containing GBA2 in the pLenti-GIII-CMV plasmid were prepared using a third Generation Virus Packaging Mix (ABM cat# LV053-G074) in HEK293T cells and supplied as a virus particle suspension. The virus suspension was used for infection of HEK293T cells. Cell populations stably expressing human GBA2 were selected using puromycin for several weeks as determined by activity assays and western blot.
Various concentrations of test compounds were prepared in DMSO and then diluted into buffer consisting of 100 mM citric acid, 200 mM disodium phosphate with 1% v/v C10E6, pH 5.5. Cellular homogenates (0.25 mg/mL) of the stable HEK293T-overexpressing GBA2 cell line were preincubated for 10 min on ice with an inhibitor of GCase (20 µM (6R,7R,8S)-8-ethyl-4-azaspiro[2.5]octane-6,7-diol). The reaction solution consisted of 20 µL of 750 µM 4-methylumbelliferone-β-D glucopyranoside in 5% DMSO in the same buffer, 20 µL of GBA2-cellular homogenate pre-treated with (6R,7R,8S)-8-ethyl-4-azaspiro[2.5]octane-6,7-diol and 20 µL of various concentrations of test compound in 10% DMSO in the same buffer. The final concentrations in the reaction were 0.083 mg/mL GBA2-cellular homogenate, 250 µM 4-methylumbelliferone-β-D glucopyranoside, and various concentrations of inhibitor. The inhibitor and GBA2-cellular homogenate were preincubated together for 5 min at 37° C. The reaction was initiated by addition of substrate and allowed to proceed for 20 min at 37° C. to assess GBA2 activity. Reactions were stopped by the addition of an equal volume (60 µL) of 0.5 M NaOH, 0.3 M glycine, pH 10.5. Fluorescence was measured on a Biotek Synergy H4 plate reader at wavelengths of 365 nm for excitation and 450 nm for emission. Incubations without added enzyme or added inhibitors were used to define no enzyme activity and maximal enzyme activity, respectively. IC50 values were determined by fitting the data to a log[inhibitor concentration] versus response curve using GraphPad Prism. IC50 values were calculated as the concentration of inhibitor required to inhibit GBA2 activity by 50%.

Row | binding specificity, Ki(other molecule)/Ki(GBA2) or IC50(other molecule)/IC50(GBA2) [1] | GBA2 IC50 (human GBA2) | Compound
1 | enhanced binding specificity | ∗∗∗ | OC[C@H]1[C@@H](O)[C@H](O)[C@@H](O)CN1C[C@H]1CCN(c2ncccc2C(F)(F)F)C1 [Example 25, (2S,3R,4R,5S)-2-(hydroxymethyl)-1—(((R)—1-(3-(trifluoromethyl)pyridin-2-yl)pyrrolidin-3-yl)methyl)piperidine-3,4,5-triol]
2 | enhanced binding specificity | ∗∗∗ | OC[C@H]1[C@@H](O)[C@H](O)[C@@H](O)CN1CCc1c(F)cc(C2CCOCC2)cc1F [Example 21, (2S,3R,4R,5S)-1-(2,6-difluoro-4-(tetrahydro-2H-pyran-4-yl)phenethyl)-2-(hydroxymethyl)piperidine-3,4,5-triol]
3 | enhanced binding specificity | ∗∗∗ | OC[C@H]1[C@@H](O)[C@H](O)[C@@H](O)CN1C[C@H]1CC[C@H](C(F)F)CC1 [Example 312, (2S,3R,4R,5S)-1-(((1r,4S)-4-(difluoromethyl)cyclohexyl)methyl)-2-(hydroxymethyl)piperidine-3,4,5-triol]
4 | enhanced binding specificity | ∗∗∗ | OC[C@H]1[C@@H](O)[C@H](O)[C@@H](O)CN1C[C@@H]1CCN(c2ncccc2C(F)(F)F)C1 [Example 27, (2S,3R,4R,5S)-2-(hydroxymethyl)-1—(((S)—1-(3-(trifluoromethyl)pyridin-2-yl)pyrrolidin-3-yl)methyl)piperidine-3,4,5-triol]
5 | enhanced binding specificity | ∗∗∗ | C[C@H](CN1C[C@H](O)[C@@H](O)[C@H](O)[C@H]1CO)c1ccccc1 (single isomer, unassigned) [Example 8]
6 | enhanced binding specificity | ∗∗∗ | OC[C@H]1[C@@H](O)[C@H](O)[C@@H](O)CN1C[C@H]1CCCN(c2ncccc2C(F)(F)F)C1 [Example 29, (2S,3R,4R,5S)-2-(hydroxymethyl)-1—(((R)—1-(3-(trifluoromethyl)pyridin-2-yl)piperidin-3-yl)methyl)piperidine-3,4,5-triol]
7 | enhanced binding specificity | ∗∗∗ | CC(C)(F)[C@H]1CC[C@@H](CN2C[C@H](O)[C@@H](O)[C@H](O)[C@@H]2CO)CC1 [Example 14, (2S,3R,4R,5S)-1-(((1s,4S)-4-(2-fluoropropan-2-yl)cyclohexyl)methyl)-2-(hydroxymethyl)piperidine-3,4,5-triol]
8 | enhanced binding specificity | ∗∗∗ | OC[C@H]1[C@@H](O)[C@H](O)[C@@H](O)CN1C[C@H]1CC[C@@H](C(F)F)CC1 [Example 311, (2S,3R,4R,5S)-1-(((1s,4R)-4-(difluoromethyl)cyclohexyl)methyl)-2-(hydroxymethyl)piperidine-3,4,5-triol]
9 | enhanced binding specificity | ∗∗∗ | OC[C@H]1[C@@H](O)[C@H](O)[C@@H](O)CN1CCc1ccc(-c2ccccc2)cc1 [Example 20, (2S,3R,4R,5S)-1-(2-([1,1′-biphenyl]-4-yl)ethyl)-2-(hydroxymethyl)piperidine-3,4,5-triol]
10 | enhanced binding specificity | ∗∗∗ | OC[C@H]1[C@@H](O)[C@H](O)[C@@H](O)CN1C[C@H]1CC[C@H](C(F)(F)F)CC1 [Example 13, (2S,3R,4R,5S)-2-(hydroxymethyl)-1-(((1r,4R)-4-(trifluoromethyl)cyclohexyl)methyl)piperidine-3,4,5-triol]
11 | enhanced binding specificity | ∗∗∗ | OC[C@H]1[C@@H](O)[C@H](O)[C@@H](O)CN1C[C@@H]1CCCN(c2nc(C(F)(F)F)cs2)C1 [Example 32, (2S,3R,4R,5S)-2-(hydroxymethyl)-1—(((S)—1-(4-(trifluoromethyl)thiazol-2-yl)piperidin-3-yl)methyl)piperidine-3,4,5-triol]
12 | enhanced binding specificity | ∗∗∗ | OC[C@H]1[C@@H](O)[C@H](O)[C@@H](O)CN1C[C@@H]1CCCN(c2ncccc2C(F)(F)F)C1 [Example 31, (2S,3R,4R,5S)-2-(hydroxymethyl)-1—(((S)—1-(3-(trifluoromethyl)pyridin-2-yl)piperidin-3-yl)methyl)piperidine-3,4,5-triol]
13 | enhanced binding specificity | ∗∗∗ | OC[C@H]1[C@@H](O)[C@H](O)[C@@H](O)CN1CC1CCCCC1 [Example 12, (2S,3R,4R,5S)-1-(cyclohexylmethyl)-2-(hydroxymethyl)piperidine-3,4,5-triol]
14 | enhanced binding specificity | ∗∗∗ | CC(F)(F)[C@H]1CC[C@H](CN2C[C@H](O)[C@@H](O)[C@H](O)[C@@H]2CO)CC1 [Example 314, (2S,3R,4R,5S)-1-(((1r,4S)-4-(1,1-difluoroethyl)cyclohexyl)methyl)-2-(hydroxymethyl)piperidine-3,4,5-triol]
15 | enhanced binding specificity | ∗∗∗ | OC[C@H]1[C@@H](O)[C@H](O)[C@@H](O)CN1C[C@@H]1CCN(c2nc(C(F)(F)F)cs2)C1 [Example 28, (2S,3R,4R,5S)-2-(hydroxymethyl)-1—(((S)—1-(4-(trifluoromethyl)thiazol-2-yl)pyrrolidin-3-yl)methyl)piperidine-3,4,5-triol]

Row | Compound | binding specificity, Ki(other molecule)/Ki(GBA2) or IC50(other molecule)/IC50(GBA2) [1] | GBA2 IC50 (human GBA2)
16 | CCCCOc1cc(F)c(CCN2C[C@H](O)[C@@H](O)[C@H](O)[C@@H]2CO)c(F)c1 [Example 23, (2S,3R,4R,5S)-1-(4-butoxy-2,6-difluorophenethyl)-2-(hydroxymethyl)piperidine-3,4,5-triol] | enhanced binding specificity | ∗∗∗
